From patent publication US20080113908A1, “Use of CRF receptor agonists for the treatment or Prophylaxis of diseases, for example Neurodegenerative diseases” (SmithKline Beecham plc, priority 2000, published 2008)

System: primary cerebellar granule neurones
Experiment: Neuroprotection by agonists with or without cAMP inhibitor Rp-cAMP (FIG. 4)
Format: cell-based, rat
Settings: Rp-cAMP 100 μM; agonists 10 nM; LY 294002 75 μM
Experimental: FIG. 4 illustrates percentage mean survival of primary cerebellar granule neurones, when in the presence of the PI 3-kinase inhibitor LY 294002 (75 μM) and also a CRF receptor agonist at 10 nM (CRF, urocortin, urotensin 1, or sauvagine), in the absence or presence of the cAMP inhibitor Rp-cAMP (100 μM). The columns from left to right represent: (1) control without LY 294002 or agonist; (2) control without agonist but with LY 294002; (columns 3, 5, 7, 9) with LY 294002 and either CRF, urocortin, urotensin 1, or sauvagine respectively; (columns 4, 6, 8, 10) as columns 3, 5, 7 and 9 respectively but additionally also with Rp-cAMP. The approx. 20% reduction in neuroprotection when in the presence of Rp-cAMP is clear.

Structure (SMILES): Nc1ncnc2c1ncn2[C@@H]1O[C@@H]2CO[P@@](O)(=S)O[C@H]2[C@H]1O [Rp-cAMPS]
- reduction of neuronal rescue provided by the CRF receptor agonists: about 20%
